Values quoted from earlier work, collected in patent US7351715B2, “Unit dosage forms for the treatment of herpes simplex” (ChronoRx, LLC, priority 1998, dated 2008).

Legend:
[1] = system: HSV-1; conditions: in vitro, supplementation with exogenous GSH
[2] = system: herpes simplex virus infections
[3] = system: HSV; conditions: topical application, guinea pigs
[4] = system: herpes simplex virus
[5] = rabbits and rats
[6] = system: HSV-1; conditions: in vitro cell culture

## N[C@@H](CCC(=O)N[C@@H](CS)C(=O)NCC(=O)O)C(=O)O [GSH, Glutathione]
[1]
  inhibition of the replication of HSV-1: over 99%

## Cl.NCCCC[C@H](N)C(=O)O [L-lysine, L-lysine monohydrochloride]
[2]; at least one study
  effect on rate of healing or appearance of lesions: no effect on the rate of healing or the appearance of lesions
[2]; oral, study involving 52 subjects
  reduction of occurrence, severity and healing time: effective agent for the reduction of occurrence, severity and healing time
[2]; patients using L-lysine, one study
  herpes simplex patients with subjective improvement: 88%
[3]
  protection of skin from HSV inoculation: protected the skin from HSV inoculation

## O=S(=O)([O-])[O-].[Zn+2] [Zinc sulfate]
[4]
  inactivation of free herpes simplex virus: inactivates free herpes simplex virus

## O=c1[nH]c(=O)n([C@H]2C[C@H](O)[C@@H](CO)O2)cc1I [idoxuridine, 2′-Deoxy-5-idouridine]
[5]
  fetal malformations: implicated in fetal malformations in rabbits and rats

## O=c1c(O)c(-c2ccc(O)c(O)c2)oc2cc(O)cc(O)c12 [quercetin, 3,3′,4′,5,7-pentahydroxyflavone]
[6]
  intracellular viral replication: reduced intracellular viral replication
  reduction of infectivity of viruses including HSV-1: concentration-dependent reduction of infectivity
